Results published in ChEMBL document CHEMBL1201862, “PubChem BioAssay data set” (2004).
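48-hour exposure; five concentrations; linearly interpolated endpoints. At the GI50, growth is halved.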 Activity calls are given as the source filed them. Rule as the data show it: active = GI50 up to about 1.1 µM and inactive = higher.

Experiments:
Assay in all cases: inhibition of tumour cell growth, NCI panel, 48 h
EKVX = test system: EKVX
NCI-H23 = test system: NCI-H23
KM12 = test system: KM12
NCI-H226 = test system: NCI-H226
Malme-3M = test system: Malme-3M
SW-620 = test system: SW-620
UACC-62 = test system: UACC-62
SF-295 = test system: SF-295
MOLT-4 = test system: MOLT-4
COLO 205 = test system: COLO 205
A498 = test system: A498
SF-268 = test system: SF-268
SN12C = test system: SN12C
NCI-H522 = test system: NCI-H522
HCT-116 = test system: HCT-116
OVCAR-4 = test system: OVCAR-4
HOP-92 = test system: HOP-92
OVCAR-3 = test system: OVCAR-3
OVCAR-5 = test system: OVCAR-5
DMS-273 = test system: DMS-273
M19-MEL = test system: M19-MEL
LXFL 529 = test system: LXFL 529
SNB-75 = test system: SNB-75
SNB-19 = test system: SNB-19
786-0 = test system: 786-0
LOX IMVI = test system: LOX IMVI
CCRF-CEM = test system: CCRF-CEM
HCC 2998 = test system: HCC 2998
A549 = test system: A549
NCI-H460 = test system: NCI-H460
U-251 = test system: U-251
SF-539 = test system: SF-539
XF498 = test system: XF498
RPMI-8226 = test system: RPMI-8226
SK-OV-3 = test system: SK-OV-3
UACC-257 = test system: UACC-257
UO-31 = test system: UO-31
K562 = test system: K562
HT-29 = test system: HT-29
CAKI-1 = test system: CAKI-1
HCT-15 = test system: HCT-15
KM-20L2 = test system: KM-20L2
DLD-1 = test system: DLD-1
OVCAR-8 = test system: OVCAR-8
IGROV-1 = test system: IGROV-1
RXF 393 = test system: RXF 393
SK-MEL-28 = test system: SK-MEL-28
HOP-18 = test system: HOP-18
HOP-62 = test system: HOP-62
SNB-78 = test system: SNB-78
TK-10 = test system: TK-10
ACHN = test system: ACHN
M14 = test system: M14
SK-MEL-2 = test system: SK-MEL-2

Cc1c2ncccc2c(C)c2c1[nH]c1ccccc12
GI50 (EKVX): 16 µM (inactive) | GI50 (NCI-H23): 11.1 µM (inactive) | GI50 (KM12): 10.3 µM (inactive) | GI50 (NCI-H226): 12.7 µM (inactive) | GI50 (Malme-3M): 15.1 µM (inactive) | GI50 (SW-620): 6.79 µM (inactive) | GI50 (UACC-62): 15.3 µM (inactive) | GI50 (SF-295): 8.57 µM (inactive) | GI50 (MOLT-4): 2.02 µM (inactive) | GI50 (COLO 205): 13.1 µM (inactive) | GI50 (A498): 12.5 µM (inactive) | GI50 (SF-268): 13.8 µM (inactive) | GI50 (SN12C): 11.5 µM (inactive) | GI50 (NCI-H522): 13 µM (inactive) | GI50 (HCT-116): 5.27 µM (inactive) | GI50 (OVCAR-4): 18 µM (inactive) | GI50 (HOP-92): 7.98 µM (inactive) | GI50 (OVCAR-3): 14.3 µM (inactive) | GI50 (OVCAR-5): 14.1 µM (inactive) | GI50 (DMS-273): 4.84 µM (inactive) | GI50 (M19-MEL): 13.4 µM (inactive) | GI50 (LXFL 529): 11 µM (inactive) | GI50 (SNB-75): 10.6 µM (inactive) | GI50 (SNB-19): 13.8 µM (inactive) | GI50 (786-0): 9.38 µM (inactive) | GI50 (LOX IMVI): 5.66 µM (inactive) | GI50 (CCRF-CEM): 10.2 µM (inactive) | GI50 (HCC 2998): 12.3 µM (inactive) | GI50 (A549): 6.78 µM (inactive) | GI50 (NCI-H460): 5.18 µM (inactive) | GI50 (U-251): 12.2 µM (inactive) | GI50 (SF-539): 13.2 µM (inactive) | GI50 (XF498): 12.8 µM (inactive) | GI50 (RPMI-8226): 6.59 µM (inactive) | GI50 (SK-OV-3): 17.4 µM (inactive) | GI50 (UACC-257): 16.6 µM (inactive) | GI50 (UO-31): > 10 µM (inactive) | GI50 (K562): 14.5 µM (inactive) | GI50 (HT-29): 11.3 µM (inactive) | GI50 (CAKI-1): 9.23 µM (inactive) | GI50 (HCT-15): 7.24 µM | GI50 (KM-20L2): 7.11 µM (inactive) | GI50 (DLD-1): 10.1 µM (inactive) | GI50 (OVCAR-8): 10.5 µM (inactive) | GI50 (IGROV-1): 12.3 µM (inactive) | GI50 (RXF 393): 13 µM (inactive) | GI50 (SK-MEL-28): 15.6 µM (inactive) | GI50 (HOP-18): 14.2 µM (inactive) | GI50 (HOP-62): 11.8 µM (inactive) | GI50 (SNB-78): 14.6 µM (inactive) | GI50 (TK-10): 17.7 µM (inactive) | GI50 (ACHN): 12.9 µM (inactive) | GI50 (M14): 17.6 µM (inactive) | GI50 (SK-MEL-2): 22.9 µM (inactive)
